Test results published in patent US10624867B2, “Transdermally-delivered combination drug therapy for pain” (BioChemics, Inc., priority 2017, dated 2020).

How the values were obtained:
[1] = tested on: Complete Freund's Adjuvant (CFA)-induced thermal hyperalgesia; test: CFA inflammation model, thermal response (paw withdrawal latency to radiant heat), set A; type: in vivo, Sprague-Dawley rats; settings: for thermal antihyperalgesia: topical cream to hindpaw, day 3 at 2 and 4 hours after treatment
Experimental: Baselines were established for all rats for thermal response latency before intraplantar (i.pl.) injection of the inflammatory agent. Three days after injection of the inflammatory agent (CFA), the degree of thermal hypersensitivity was determined followed by topical application to anesthetized rats of i) the drug-free cream, creams containing ii) ibuprofen, iii) gabapentin, and each the combination of ibuprofen with gabapentin using a topical cream optimized for deep skin penetration/vascular access. Six experimental groups were used in total Application of ibuprofen cream served both as an active pharmacological agent and positive control throughout these studies. The drug formulation and control cream (negative control) was applied to the glabrous side of the rat hindpaw using a previously published method. Nozaki-Taguchi, N. and T. L. Yaksh., Characterization of the Antihyperalgesic Action of a Novel Peripheral Mu-opioid Receptor Agonist-loperamide, Anesthesiology, 90: 225-234, 1999; Iadarola, M. J., et al., Increased Spinal Cord Dynorphin mRNA During Peripheral Inflammation, NIDA Re.s Monogr., 75: 406-409, 1986.
Rats were isoflurane-anesthetized (1-2%) and the cream (0.2 g) applied gently with a finger for 1 minute to the glabrous skin of the hindpaw. For low drug concentrations, 5% formulations of all drugs were. For high drug concentrations, 10% cream formulations were employed. […] Upon recovery from anesthesia (within 10 minutes of cessation of anesthetic), rats were moved to plexiglass enclosures for sensory assessment. Efficacy was initially tested at 1, 2, 4, 8, 24 hours after cream treatment; depending on initial results. Time was revised to track the onset and offset of drug effects.
(§1) Two parallel studies (two arms) were done, each with four treatment groups, with four Sprague-Dawley rats per group. The rats used were male rats weighing 175-200 grams. Half of the rats were given injections of 1:1 complete Freund's adjuvant (CFA) on day 0 to produce long-term inflammation of the left hindpaw; the other half of the rats were given spared nerve injury (SNI, transection of 2 of 3 branches of the sciatic nerve) in the lower thigh on day 0.
(§2) Before treatments, rats' baseline response thermal latencies (on a glass surface suspended above a moveable heat lamp) or mechanical thresholds (on a wire mesh surface suspended above a moveable electronic von Frey stimulator) were determined after 15 min acclimatization on the thermal or mechanical testing apparatuses.
(§3) The CFA model of persistent inflammatory hyperalgesia in one hindpaw of the rats was utilized (see Gold and Gebhart, Nature Medicine 16: 1248-1257, 2010). This model produces edema, reddening, inflammation, and behavioral hypersensitivity. Experimental groups of rats were anesthetized with isoflurane before receiving an intraplantar injection into the left hindpaw of 100 μl of CFA (1:1 with sterile PBS) using a sterile 0.5 ml syringe. The CFA model produced inflammatory signs accompanied by thermal and mechanical hyperalgesia in the injected hindpaw within six to eight hours. The hypersensitivity peaks at 3 days, which was the first testing day of the analgesic topical formulations in the CFA model.
One of four treatments was applied to each rat on days 3, 7 and 11 after CFA injection or on days 7, 14 and 21 after SNI application. […] For the formulations with ibuprofen and/or gabapentin, the formulation also contained vasodilators arginine and methyl nicotinate, chelator EDTA, solvents dimethyl acetamide and water, osmolyte potassium hydroxide, lipids soy bean oil and olive oil, and various other excipients including eucalyptol, gelcarin GP-379NF, glyceryl monostearate, menthol, methyl paraben, propylparaben, phenoxyethanol, permulen TR-1, phospolipon 90H, ST elastomer, urea, and Vitamin E TPGS. […]

[2] = tested on: CFA inflammation-induced mechanical hyperalgesia; test: CFA inflammation model, mechanical response (von Frey stimulation), set A; type: in vivo, Sprague-Dawley rats; settings: CFA rats
From the text: as §1, §2, §3
One of four treatments was applied to each rat on days 3, 7 and 11 after CFA injection or on days 7, 14 and 21 after SNI application. […] For the formulations with ibuprofen and/or gabapentin, the formulation also contained vasodilators arginine and methyl nicotinate, chelator EDTA, solvents dimethyl acetamide and water, osmolyte potassium hydroxide, lipids soy bean oil and olive oil, and various other excipients including eucalyptol, gelcarin GP-379NF, glyceryl monostearate, menthol, methyl paraben, propylparaben, phenoxyethanol, permulen TR-1, phospolipon 90H, ST elastomer, urea, and Vitamin E TPGS.
For application of the topical formulation, the rats were anesthetized with isoflurane for 30 min. while the creams were applied to both hindpaws to minimize oral absorption as described in Nozaki-Taguchi et al., Anesthesiology 90: 225-234, 1999; Iadarola et al., NIDA Res. Monogr. 75: 406-409, 1986. […]
In these studies, the sensory responsiveness to thermal (radiant heat) stimuli was assessed in terms of time to elicit paw withdrawal. […] Sensory responses to mechanical stimulus (von Frey stimulation) were also assessed prior to CFA injection and following several days after inflammation (FIGS. 2A-2C) or nerve injury (FIGS. 4A-5C). […]

[3] = CFA rats, days 7 and 12 post-CFA
[4] = day 11 at 2 hours after treatment
[5] = day 12 at 2 hours after treatment

`NCC1(CC(=O)O)CCCCC1` [gabapentin] was tested, and the “thermal antihyperalgesia (possible efficacy) on later days” value (“thermal antihyperalgesia … on later days” below) [1, 3] was “not repeated”, the thermal antihyperalgesia ([1]; CFA rats) was “borderline significant” and the “suppression of thermal hyperalgesia” value ([1]; CFA rats, transdermal delivery, drug alone) was “failed to suppress”. The “efficacy against mechanical hyperalgesia, agent given alone” value (“efficacy against mechanical hyperalgesia” below) [2, 4] was “efficacious” and the “efficacy against mechanical hyperalgesia” value [2, 5] was “efficacious”.

`CC(C)Cc1ccc(C(C)C(=O)O)cc1` (stereo not drawn) [ibuprofen, 2-[4-(2-methylpropyl)phenyl]propanoic acid] was tested, and the reversal of hyperalgesia ([1]; CFA rats, cream applied for 20 minutes, 1 hour after treatment on day 3 post-CFA) was “completely reversed”, the “duration of beneficial impact of the drug” value ([1]; CFA rats, day 3 post-CFA) was 4 h and the “hyperalgesia after 24 hours” value ([1]; CFA rats, day 3 post-CFA, 24 hours after treatment) was “completely returned to the baseline level”. For the same compound, the “statistical significance of the effect” value ([1]; CFA rats, day 3 post-CFA, vs vehicle (ANOVA, Dunnett)) was “statistically significant”, the “thermal antihyperalgesia … on later days” value ([1]; CFA rats, days 7 and 11 post-CFA) was “not repeated” and the “thermal antihyperalgesia … on later days” value [1, 3] was “not repeated”. The thermal antihyperalgesia ([1]; CFA rats) was “borderline significant”, the “reversal of thermal hypersensitivity” value ([1]; FIGS. 1A-1C, at some time points during the testing period) was “significant reversal” and the “efficacy against mechanical hyperalgesia” value [2, 4] was “efficacious”. For the same compound, the “efficacy against mechanical hyperalgesia” value [2, 5] was “efficacious”.
